Several values for one entry are separate records, joined by “and”; a condition that tells them apart may be missing. Equal values may be shown once.
Tests used:
GPBAR1 = molecular target: T1, GPBAR1 (Homo sapiens, UniProt Q8TDU6); assay: Luciferase reporter (CRE) transactivation assay in HEK-293T cells transfected with GPBAR1; format: cell-based; details: dose response 1 to 50 µM, HEK-293T transfected with GPBAR1
T1 construct: expressed in transfected cells; host or cells: HEK-293T
T1 sequence (Q8TDU6 1-330): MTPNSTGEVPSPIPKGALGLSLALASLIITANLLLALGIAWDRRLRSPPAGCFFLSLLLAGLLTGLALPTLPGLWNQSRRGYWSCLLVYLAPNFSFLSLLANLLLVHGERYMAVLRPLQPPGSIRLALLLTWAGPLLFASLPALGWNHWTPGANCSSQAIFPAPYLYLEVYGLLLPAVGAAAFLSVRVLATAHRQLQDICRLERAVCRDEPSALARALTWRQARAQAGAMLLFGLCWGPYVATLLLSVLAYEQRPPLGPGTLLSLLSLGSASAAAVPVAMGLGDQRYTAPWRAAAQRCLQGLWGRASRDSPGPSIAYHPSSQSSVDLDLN
Protocol: (§1) The activity of compounds 1–14 on GPBAR1 was evaluated in a luciferase reporter assay using HEK-293T cells transfected with GPBAR1. The efficacy of tested compounds (Table 1) was measured using taurolithocholic acid (TLCA) as GPBAR1 reference compound[10],[11]. Each compound was tested at the concentration of 10 μM and transactivation activity of TLCA on a cAMP responsive element (CRE) (i.e. TGR5/GPBAR1) was considered equal to 100%. […] Thus, 9 and 10 (Table 1) turned out to be the most promising derivatives considering their low EC50 values and high activity efficacy. To further characterize the pharmacological properties of these compounds, we expanded their in vitro profile to common off-targets for bile acid receptor ligands.
Transactivation assay on HEK-293T cells was performed to investigate GPBAR1 activation, using compound 1–14 and TLCA as positive control at 10 µM, as previously reported.
Supplementary Figure S4. HEK-293T cells were transiently transfected with GPBAR1 and a reporter gene containing a cAMP responsive element in front of the luciferase gene. Cells were stimulated with compounds A-L (10 μM). TLCA (10 μM) was used as positive control. Luciferase activity served as a measure of the rise in intracellular cAMP following activation of GPBAR1. In all panels, results are expressed as mean ± standard error. ^∗p < 0.05 versus not treated cells (NT).

PPARα = molecular target: T2, PPARα (Homo sapiens, UniProt Q07869); assay: Luciferase reporter specificity assay versus PPARα on HepG2 cells; format: cell-based; details: 10 μM
T2 construct: host or cells: HepG2
T2 sequence (Q07869 1-468): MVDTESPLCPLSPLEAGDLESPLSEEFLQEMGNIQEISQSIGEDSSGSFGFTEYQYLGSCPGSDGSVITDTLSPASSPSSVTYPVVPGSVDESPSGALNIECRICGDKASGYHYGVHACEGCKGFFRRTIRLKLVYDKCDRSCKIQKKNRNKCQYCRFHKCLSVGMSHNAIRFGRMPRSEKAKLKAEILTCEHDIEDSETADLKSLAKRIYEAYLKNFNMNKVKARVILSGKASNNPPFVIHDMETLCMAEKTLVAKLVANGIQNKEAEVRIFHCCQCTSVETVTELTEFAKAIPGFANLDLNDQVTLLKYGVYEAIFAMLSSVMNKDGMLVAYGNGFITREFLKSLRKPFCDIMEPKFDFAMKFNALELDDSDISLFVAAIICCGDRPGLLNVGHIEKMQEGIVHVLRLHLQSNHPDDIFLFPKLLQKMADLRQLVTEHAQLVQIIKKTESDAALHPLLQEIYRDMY
Protocol: as §1
Figure 3 (A) Dose response curves of compounds 9 and 10 (concentrations ranging from 1 to 50 µM) in luciferase reporter assay. (B) Real-time PCR analysis of mRNA expression of Pro-glucagon in GLUTag cells treated with compounds 9 and 10 at 10 μM, and TLCA used as a positive control (10 μM). Values are normalized to GAPDH and are expressed relative to those of not treated cells (NT) which are arbitrarily settled to 1. The relative mRNA expression is expressed as 2^(−ΔΔCt). […]
The specificity of compounds 9 and 10 versus PPARα, PPARγ, LXRα, LXRβ, FXR and PXR was determined in luciferase reporter gene assays as previously reported[29],[31].

[1] = Aqueous solubility measurement (PBS pH 7.4, LC-MS); format: physicochemical; details: aqueous buffer, kinetic from dmso stock; PBS pH 7.4, 24 h room temperature
Protocol: Chromatography was performed using a HPLC–MS system Q-ToF Premiere instrument (Waters, Co.) equipped with an ESI source and Waters pump systems. The mixture was separated on a Luna 5 µm C8(2) 100 °A 150 × 2 mm from Phenomenex. The mobile phase consisted of 0.2% formic acid (FA) in water as solvent A and 0.2% FA in acetonitrile as solvent B at a flow rate of 200 μL/min. The gradient was as follows: 0–2 min (75% A and 25% B), 2–20 min (5% A and 95% B), 20–30 min (75% A and 25% B). The detection of analytes was achieved by ESI in the positive mode with the appropriate MRM transition or by UV system at 220 nm.
Ten μL of a 10 mM solution in DMSO of the compound was diluted either in 490 μL of PBS pH 7.4 or in the organic solvent MeOH (in triplicate). The tubes were gently shaken 24 h at room temperature, then centrifuged for 5 min at 4000 rpm. Ten μL of sample was diluted in 490 μL of MeOH. The solubility is determined by the ratio of mass signal area PBS/organic solvent.

EC50 (GPBAR1) [µM] | PPARα transactivation (PPARα) | solubility at 24 h [1] | Structure (SMILES)
3.5 | unable to induce | 42 µg/mL and 110 µM | O=C(Nc1ccc(Cl)cc1)N[C@@H]1CN[C@H](c2nc(-c3ccccc3)no2)C1 [Compound 9]
4.6 | unable to induce | 70 µg/mL and 198 µM | O=C(NC1CCCCC1)N[C@@H]1CN[C@H](c2nc(-c3ccccc3)no2)C1 [Compound 10]

Reference: article PMC6385358, “Discovery of ((1,2,4-oxadiazol-5-yl)pyrrolidin-3-yl)ureidyl derivatives as selective non-steroidal agonists of the G-protein coupled bile acid receptor-1” (Scientific Reports, 2019)
